Experimental data taken from publication PMC9916778 (International Journal of Molecular Sciences, 2023).

Legend:
[1] = test system: human cancer cell lines (A2780, A2780R, PC-3, 22Rv1, and THP-1); assay: In vitro cytotoxicity, summary statements over the panel of cell lines; assay type: cell-based; details: IC50 for normal cell line/IC50 for cancerous cell line
Experimental: The testing was performed on the ovarian carcinoma (A2780), Cisplatin-resistant ovarian carcinoma (A2780R), prostate adenocarcinoma (PC-3), prostate carcinoma (22Rv1), and leukemia monocytic (THP-1) and intestinal colon adenocarcinoma (LS180) human cell lines that were obtained from the ATCC collection of cell lines and cultivated according to the producer’s instructions. The reference normal cell line of human fetal fibroblasts (MRC-5) was obtained from the same commercial source and maintained according to the producer’s instructions. The half-maximal inhibitory concentrations (IC50) were calculated from dose–response curves by means of the GraphPad Prism 6 software (GraphPad Software, San Diego, CA, USA).

A2780 cells [2] = assay: Mitochondrial membrane potential analysis (MITO-ID); assay type: cell-based, human; details: A2780, half-cytotoxic concentration, 24 h
Experimental: The A2780 cells were seeded in 24-well cell culture plates at 5 × 10^4 cells/well and cultivated for 24 h. The next day, the complex (1) was added to a final concentration of 4 µM, and the cells were incubated for another 24 h. […] The cells were then isolated by centrifugation and resuspended in a staining solution prepared according to the manufacturer’s protocol from a MITO-ID® Membrane Potential Detection kit (Enzo Life Sciences, USA). Finally, the cells were analyzed using a BD FACSVerse flow cytometer (Becton Dickinson, USA). The control was carried out by treatment with 2 µM carbonyl cyanide 3-chlorophenylhydrazone (CCCP). Three independent experiments were conducted, each in duplicate.

A2780 cells [3] = assay: Time-dependent cellular uptake of gold (ICP-MS); assay type: in vitro ADME, human
Experimental: Figure 3 The intracellular gold concentration levels caused by the incubation of [Au(kin)(PPh3)] (1), [Au(PPh3)Cl], and Auranofin with A2780 cells after 2 h, 6 h, 12 h, 24 h, 48 h, and 72 h. The results were obtained by ICP-MS analyses of three parallel samples and are shown as mean values with error bars corresponding to the standard deviation values of the gold concentration expressed in ng of gold per 10^6 cells. TEXT PRINTED IN THE PICTURE: [Au(kin)PPh3] (1): Intracellular Au content [ng/10^6 cells]: 121.3; Intracellular Au content [ng/10^6 cells]: 97.1; Intracellular Au content [ng/10^6 cells]: 88.8; Intracellular Au content [ng/10^6 cells]: 89.4; Intracellular Au content [ng/10^6 cells]: 287.5; Intracellular Au content [ng/10^6 cells]: 352.9 | Auranofin: Intracellular Au content [ng/10^6 cells]: 182.5; Intracellular Au content [ng/10^6 cells]: 231.1; Intracellular Au content [ng/10^6 cells]: 361.3; Intracellular Au content [ng/10^6 cells]: 333.9; Intracellular Au content [ng/10^6 cells]: 555.3; Intracellular Au content [ng/10^6 cells]: 320.2 | [Au(PPh3)Cl]: Intracellular Au content [ng/10^6 cells]: 84.6; Intracellular Au content [ng/10^6 cells]: 106.1; Intracellular Au content [ng/10^6 cells]: 80.7; Intracellular Au content [ng/10^6 cells]: 97.6; Intracellular Au content [ng/10^6 cells]: 304.2; Intracellular Au content [ng/10^6 cells]: 415.8 DOUBTS OF THE COPYIST ABOUT THIS PICTURE: Point labels are black, not coloured by series. Where the [Au(kin)PPh3] (1) and [Au(PPh3)Cl] curves run close together, I assigned the labels by their position above or below the points: 97.1/106.1, 88.8/80.7, 89.4/97.6 and 287.5/304.2. These assignments are not fully certain. / No incubation time is printed beside any point label, only on the axis, so no time condition is given with the values.

PPARγ = assay: Immunocytochemical analysis of PPARγ expression and localisation; assay type: cell-based, human; details: 100 nM, 1 h pre-treatment, LPS-stimulated THP1-Blue NF-κB macrophages
Experimental: THP1-Blue™ NF-κB cells were seeded onto a µ-Slide 8 Well (Ibidi; Gräfelfing, Germany) and differentiated into macrophages by […] (PMA) at the final concentration of 50 ng/mL, as was described previously.
Differentiated macrophages were washed by PBS and covered by fresh serum-free medium for 2 h. […] One hour later, the cells were challenged by LPS for 24 h. Then, the cells were washed by PBS and fixed by 4% paraformaldehyde dissolved in PBS for 10 min. Cell permeabilization and blocking of free binding sites were performed by 0.1% (v/v) Triton X100 and 5% (w/v) bovine serum albumin (BSA) dissolved in PBS for 1 h at room temperature. After that, cells were washed by PBS with 0.1% (v/v) Tween 20 and covered by fresh PBS with 5% BSA and 0.1% Tween 20 containing Alexa Fluor® 546-labelled anti-PPARγ antibody diluted 1:100 (catalogue number sc-7273; Santa Cruz Biotechnology; Dallas, TX, USA) for a further 24 h. Then, cells were washed by PBS with 0.1% Tween 20 and incubated with Hoechst stain diluted 1:2000 for 10 min. The remaining stain was washed out by PBS and covered by fresh PBS for further microscope analysis. The confocal microscope Leica TCS SP8 MP (Leica Microsystems, Mannheim, Germany) was used for obtaining the images for the immunocytochemical analysis of PPARγ expression and localization.

## CC[PH](CC)(CC)[Au][S][C@@H]1O[C@H](COC(C)=O)[C@@H](OC(C)=O)[C@H](OC(C)=O)[C@H]1OC(C)=O [Auranofin, [3,4,5-triacetyloxy-6-(acetyloxymethyl)-oxane-2-thiolate-(triethylphosphine)gold(I)]]
[1]
  selectivity index (SI): around 1
A2780 cells [2]
  Cells with loss of mitochondrial membrane potential: more than 80%
A2780 cells [3]; A2780 cells, after 12 h of incubation
  Excess of intracellular gold level over [Au(kin)(PPh3)] and [Au(PPh3)Cl]: up to 4 times

## [Cl][Au].c1ccc(P(c2ccccc2)c2ccccc2)cc1 [[Au(PPh3)Cl]]
PPARγ
  Effect on the amount of PPARγ: did not show this effect
A2780 cells [2]
  Damage to mitochondrial membranes: Significant changes in mitochondrial membrane permeability
A2780 cells [3]
  Intracellular Au content, 2 h: 84.6 ng/10^6 cells
  Intracellular Au content, 6 h: 106.1 ng/10^6 cells
  Intracellular Au content, 12 h: 80.7 ng/10^6 cells
  Intracellular Au content, 24 h: 97.6 ng/10^6 cells
  Intracellular Au content, 48 h: 304.2 ng/10^6 cells
  Intracellular Au content, 72 h: 415.8 ng/10^6 cells
